XC50 data for 83 compounds are collected here from ChEMBL document CHEMBL1157539, “Thousands of chemical starting points for antimalarial lead identification” (Nature, 2010).

Molecules are shown by their SMILES.

The assay deals with Plasmodium falciparum. As to the kind of experiment: GSK_TCMDC: Inhibition of Plasmodium falciparum 3D7 in whole erythrocytes, using parasite LDH activity as an index of growth. Type of assay: functional, organism-based. The settings on record: Plasmodium falciparum, 3D7.
Take `O=C(Nc1ccc([N+](=O)[O-])cc1)c1nn(-c2ccccc2)cc1/N=C/c1cccc(O)c1`: the XC50 was found to be 890 nM.

`CN(C)Cc1ccc(-c2cc3c(Nc4ccc(OCc5cccc(F)c5)c(Cl)c4)ncnc3s2)[nH]1`: the XC50 worked out at 824 nM. With `O=C(Nc1cccc(CN2CCCN(Cc3ccc(O)cc3)CC2)c1)c1ccc(Cl)c(Cl)c1`, the XC50 worked out at 259 nM. The compound `COc1cc(-c2nc(-c3ccc(C(=O)c4ccc(F)cc4)cc3)c(-c3ccccc3)[nH]2)cc(OC)c1O` had an XC50 of 659 nM. In turn, `O=C(c1ccc(F)c(F)c1)N1CCOC(CCN2CCC(c3ccccc3)CC2)(c2ccc(Cl)c(Cl)c2)C1` (stereo not drawn) showed an XC50 of 1040 nM.

For `COc1ccc(CNCc2cccc(-c3ccc(-c4nc5ccccc5[nH]4)s3)c2)cc1`, the XC50 came to 816 nM. `CC(=O)N(C)c1cccc(C(=O)Nc2cccc(-c3cccc(-c4nc5cc(C(F)(F)F)ccc5[nH]4)c3)c2)c1` gave an XC50 of 236 nM. `CCOC(=O)c1ccc(NC(=O)Nc2cccc(-c3ccc(-c4nc5cc(C(F)(F)F)ccc5[nH]4)cc3)c2)cc1` came in with an XC50 of 212 nM.

With `CN1CCC(Oc2cc(NC(=O)Nc3ccc(-c4ccncc4)c(Cl)c3)ccc2Cl)CC1`, the XC50 is 530 nM. Next, `c1ccc(Oc2ccc(Nc3ccnc(Nc4ccc5cn[nH]c5c4)n3)cc2)cc1`: 733 nM; `COc1ccc(C(=O)Nc2ccc3nc(N4CCCCC4)cc(C)c3c2)cc1OC`: 994 nM. In turn, `c1ccc(Oc2ccc(Nc3ccnc4c(-c5ccccn5)cccc34)cc2)cc1` gave an XC50 of 987 nM. In turn, `Cc1cc(N(C)C)nc(Nc2ccc(NC(=O)c3c(F)cccc3F)cc2)n1` had an XC50 of 1380 nM. In turn, `COc1cc2c(cc1S(=O)(=O)c1ccc(NC(=O)c3cc4ccccc4s3)cc1)CCN(C)CC2` registered an XC50 of 837 nM. Next, `Oc1ccccc1CCNCC1CCc2ccccc2C1` (stereo not drawn): 689 nM; `O=C(Cc1ccc(Cl)cc1)Nc1cc(Cl)ccc1Cn1cnc(N2CCNCC2)cc1=O`: 998 nM. `Cc1cc(=NN=CC=Cc2ccccc2)c2ccccc2[nH]1` came in with an XC50 of 757 nM. As for `N=C(N)NCCCN(Cc1ccccc1)c1ccc(Cl)cc1`, the XC50 came to 564 nM. The value for `CC(Cc1ccc(C(=O)OC(c2ccccc2)c2ccccc2)cc1)NCC(O)c1ccccc1` (stereo not drawn) was 178 nM; that for `Cc1[nH]c(C)c(-c2ccc(-c3ccccc3)nc2)c(=O)c1Br` was 661 nM; that for `CCOC(=O)C(C#N)NC(=O)C=Cc1ccccc1` (stereo not drawn) was 804 nM.

`CC(=O)Nc1ncc(C(=O)Nc2cccc(-c3ccc(-c4nc5cc(C(F)(F)F)ccc5[nH]4)cc3)c2)s1` yielded an XC50 of 590 nM. Consider `O=C(Nc1ccc(Cl)c(C(F)(F)F)c1)Nc1ccc(Cl)c(C(F)(F)F)c1`, for which the XC50 worked out at 768 nM. In turn, `O=C(Nc1cccc(CN2CCCN(Cc3ccsc3)CC2)c1)c1ccc(Cl)c(Cl)c1` came in with an XC50 of 885 nM. Compound `O=C(C=Cc1ccc(Cl)c(Cl)c1)NCCCCCN1CCC(CCNC(=O)C(c2ccccc2)c2ccccc2)CC1` gave an XC50 of 1010 nM. Turning to `CC(C)c1ccc2c(c1)c(SC(C)(C)C)c(CC(C)(C)C#N)n2Cc1ccc(Cl)cc1`, the XC50 stood at 225 nM. The compound `c1ccc(CN2CCC(NCc3ccc(-c4ccc(CNCc5cccnc5)cn4)cc3)CC2)cc1` had an XC50 of 879 nM. The value for `O=C(NCC1CCN(CC2CCCCC2)C1)c1cc(-c2cccc(Cl)c2)cs1` (stereo not drawn) was 1090 nM.

`O=C1COc2ccccc2N1CCN1CCC(NCc2ccc(-c3cccs3)cc2)CC1`: the XC50 is 1430 nM.

On to `CCn1c(-c2nc(-c3ccnc(N4CCN(C)CC4)c3)cnc2N)nc2cc(S(C)(=O)=O)ccc21`, for which the XC50 worked out at 815 nM.

`COc1cc(Nc2ncc3c(C)nc(-c4cccc(Nc5ccc(CN6CCS(=O)(=O)CC6)cc5)c4)n3n2)cc(OC)c1OC`: the XC50 turned out to be 865 nM. With `O=C(/C=C/c1ccc(Cl)c(Cl)c1)NCCCCCN1CCCN(C(=O)Nc2cccc(F)c2)CC1`, the XC50 was found to be 757 nM. As to `O=S(=O)(/C=C/c1ccccc1)N(Cc1ccc(-c2ccc(CNCCOc3ccccc3)cc2)cc1)CC1CCCCN1` (stereo not drawn), the XC50 is 744 nM. Compound `CS(=O)(=O)CCNC(=O)c1ccc(-c2cc3c(Nc4ccc5c(cnn5Cc5ccccc5)c4)ncnc3cn2)o1` had an XC50 of 995 nM. As to `O=C(Nc1cccc(-c2csc(-c3nc4ccccc4[nH]3)c2)c1)c1cc(=O)c2ccccc2[nH]1`, the XC50 was determined as 232 nM. The compound `N#Cc1c(N2CCN(c3ccc(F)cc3)CC2)nc(N)c2c(N)nc3c(c12)CC(=O)N3C1CC1` showed an XC50 of 837 nM. Consider `COc1cc2nc(Nc3ccc4c(ccn4Cc4ccccc4)c3)nc(Nc3ccc4c(ccn4Cc4ccccc4)c3)c2cc1OC`, for which the XC50 is 647 nM. In the case of `COc1cc(Nc2ccnc3cc(-c4ccccn4)ccc23)cc(OC)c1OC`, the XC50 came out at 912 nM. As to `COCCCNC(=O)c1ccc(O)c(-c2cc(Cl)cc(Cl)c2)c1`, the XC50 is 923 nM. The value for `Cc1ccc(C)c2c1[nH]c1ccc(C3=NCCN3)cc12` was 497 nM; that for `CC(=O)Nc1ncc(C(=O)Nc2ccc(-c3cccc(-c4nc5cc(C(F)(F)F)ccc5[nH]4)c3)cc2)s1` was 260 nM; that for `O=C(Nc1cccc(-c2cccc(-c3nc4cc(C(F)(F)F)ccc4[nH]3)c2)c1)c1cccnc1` was 404 nM.

For `CCc1cn2c3c(cc(C(=O)N[C@@H](Cc4ccccc4)[C@H](O)CNC4CCC4)cc13)N(C)S(=O)(=O)CC2`, the XC50 stood at 99 nM. Compound `COc1cc2c(cc1OC)C(C(=O)Nc1ccc(C(F)(F)F)cc1)C(c1cccs1)N(C)C2=O` (stereo not drawn) showed an XC50 of 158 nM. Regarding `Oc1ccccc1CN1CCC(CCOC(c2ccccc2)c2ccc(Cl)cc2)CC1` (stereo not drawn), the XC50 is 743 nM. The value for `c1ccc2c(c1)CN(Cc1cc3ccccc3[nH]1)CC1(CCN(Cc3c[nH]c4cnccc34)CC1)O2` was 306 nM; that for `CC(C)c1cc(N)c2cc(NC(=O)COCC(=O)Nc3ccc4nc(C(C)C)cc(N)c4c3)ccc2n1` was 216 nM. Next, `COc1cc(Nc2nccc(N3CCC(NC(=O)c4cc5ccccc5s4)C3)n2)cc(OC)c1OC` (stereo not drawn): 786 nM; `O=C(COc1ccc(F)cc1)NC1CCN(c2ccnc3cc(Cl)ccc23)C1` (stereo not drawn): 265 nM.

`CC(C)(C)Cn1cc(-c2ccc(C(=O)NCCc3ccc(S(C)(=O)=O)cc3)cc2)c(N)n1.CC(C)(C)Cn1ncc(-c2ccc(C(=O)NCCc3ccc(S(C)(=O)=O)cc3)cc2)c1N` displayed an XC50 of 647 nM.

On to `CCOc1ccc2[nH]c(C)cc(=NN=Cc3ccccc3F)c2c1`, for which the XC50 was found to be 738 nM. The value for `COc1ccc2nccc([C@@H](O)CN3CCC(NCCOc4cc(F)cc(F)c4)CC3)c2c1` was 155 nM.

Take `O=C(c1cc2c(s1)-c1cccc(Cl)c1SC2)N1CCN(c2ccncc2)CC1`: the XC50 stood at 1010 nM. Turning to `CC(=O)N(C)c1cccc(C(=O)Nc2ccc(-c3cccc(-c4nc5cccc(C)c5[nH]4)c3)cc2)c1`, the XC50 was found to be 651 nM.

The compound `CCN(CC)CCOC(=O)C(OC)(c1ccccc1)c1ccccc1` came in with an XC50 of 1020 nM. The value for `CC(C)NCc1ccc(-c2ccc(CN3CCCC(c4ccccc4)C3)cc2)c(C(=O)NCC2CCCCC2)c1` (stereo not drawn) was 722 nM. Turning to `Cc1cc(N[C@@H](Cc2ccccc2)C(=O)NCc2cccc(F)c2)nc(NCCc2cccnc2)n1`, the XC50 is 1340 nM. `CC(C(=O)N1CCCC1)N1CCN(S(=O)(=O)c2ccc(C(C)(C)C)cc2)CC1` (stereo not drawn) returned an XC50 of 636 nM. The value for `COc1ccc2ncc(F)c(CCN3C4CCC3CC(NCc3ccc5c(c3)OCCO5)C4)c2n1` (stereo not drawn) was 225 nM; that for `N=C(N)Nc1nc(-c2cc(NC(=O)C(F)(F)F)cc([N+](=O)[O-])c2)cs1` was 781 nM. Consider `O=C(Nc1cccc(-c2nc3ccccc3s2)c1)c1ccccc1[N+](=O)[O-]`, for which the XC50 was determined as 767 nM. `CC(C)Cn1ncc2c3c(N)nc(N)nc3ccc21` returned an XC50 of 159 nM. In turn, `O=C(N[C@@H](Cc1ccccc1)CN1CCC(Oc2ccc(F)cc2)CC1)c1ccc(OCCCN2CCCCC2)cc1` registered an XC50 of 885 nM.

`Cc1[nH]c2ccc(O)cc2c1C1CCN(CC2CCN(C(=O)/C=C/c3ccc(Cl)c(Cl)c3)CC2)CC1` had an XC50 of 998 nM. `CCOC(=O)c1c(C)n(C2CCCCC2)c2cc(Br)c(O)cc12` yielded an XC50 of 815 nM. Turning to `Cc1cccc2nc(-c3cccc(-c4ccc(NC(=O)NCc5ccccc5)cc4)c3)[nH]c12`, the XC50 worked out at 231 nM.

The compound `CCc1cccc2sc(N3CCN(C(=O)c4ccc([N+](=O)[O-])o4)CC3)nc12` gave an XC50 of 773 nM. The value for `Nc1ccnc(N2CCC(CCOc3cc(C(F)(F)F)nc4c(C(F)(F)F)cccc34)CC2)c1` was 792 nM. Take `Cn1nc(C(F)(F)F)c(-c2ccc(F)cc2)c1NC(=O)Nc1ccc(F)cc1F`: the XC50 amounted to 765 nM.

Take `O=C(Nc1cccc(F)c1)N(Cc1ccc(-c2ccc(CN3CCNCC3)cc2)cc1)C1CCN(Cc2ccccc2)CC1`: the XC50 amounted to 769 nM. With `COc1cccc(-c2c(C#N)c(N)nc3c2c(C)nn3-c2ccccc2)c1O`, the XC50 is 282 nM.

`FC(F)(F)c1ccc2[nH]c(-c3ccc(-c4cccc(CNCc5cnn(-c6ccccc6)n5)c4)s3)nc2c1` registered an XC50 of 329 nM.

`N=C(N)c1ccc(C(=O)Nc2cccc(C(=N)N)c2)cc1` came in with an XC50 of 1040 nM. `C=CC[C@H](C[C@H](O)[C@H](Cc1ccccc1)NC(=O)c1nn(-c2ccccc2)nc1C)C(=O)NC1CCCCC1` showed an XC50 of 915 nM. The compound `CCc1cn2c3c(cc(C(=O)N[C@@H](Cc4ccccc4)[C@H](O)CNC4CCCC4)cc13)N(C)S(=O)(=O)CC2` had an XC50 of 46.9 nM. The compound `CC[C@H](C)CNC(=O)c1ccnc(-c2cccc(CN(C)C3CCN(C)CC3)c2)c1` yielded an XC50 of 898 nM. Compound `CC(C)(C)c1cc(C(=O)N2CCN(c3ncccc3C(F)(F)F)CC2)n(Cc2ccccc2)n1` came in with an XC50 of 251 nM. `CC[C@H](C)CNC(=O)c1ccc(-c2cccc(CN3CCC(N4CCCC4)CC3)c2)nc1` gave an XC50 of 787 nM. With `c1cncc(CCNCc2ccc(-c3ccc(-c4nc5ccccc5[nH]4)s3)cc2)c1`, the XC50 was 213 nM. Next, `COc1ccccc1C1CC(c2ccc(C)cc2)=NN1C(=O)c1ccccc1` (stereo not drawn): 886 nM; `COc1cc(-c2nc(C(C)(C)CN)[nH]c2-c2ccncc2)ccc1Br`: 769 nM; `CC1CNC(c2cccc(NC(=O)Nc3cccc(C4=NC(C)CN4)c3)c2)=N1` (stereo not drawn): 359 nM. For the compound `CS(=O)(=O)N1CC2(CCN(CCC(NC(=O)Nc3ccccc3)c3ccc(Cl)c(Cl)c3)CC2)c2ccccc21` (stereo not drawn), the XC50 came out at 823 nM.
